US8324406B2, “Antitumoral dihydropyran-2-one compounds” (priority 2006, dated 2012)
≈ marks a conversion by molar mass, not a printed value. Read-outs that look alike come from different tables or passages of the source.

Assays:
breast cancer carcinoma = conditions: cited from earlier work
A549 = assay: cells; type: cell-based; conditions: Homo sapiens; for IC (TGI): read-out: TGI
Excerpt: (§1) The aim of this assay is to evaluate the in vitro cytostatic (ability to delay or arrest tumor cell growth) or cytotoxic (ability to kill tumor cells) activity of the samples being tested.
(§2) Evaluation of Cytotoxic Activity Using the SBR Colorimetric Assay
(§3) A colorimetric type of assay, using sulforhodamine B (SRB) reaction has been adapted for a quantitative measurement of cell growth and viability (following the technique described by Skehan P et al. J. Natl. Cancer Inst. 1990, 82, 1107-1112).
(§4) This form of assay employs SBS-standard 96-well cell culture microplates (Faircloth et al. Methods in cell science, 1988, 11(4), 201-205; Mosmann et al, Journal of. Immunological. Methods, 1983, 65(1-2), 55-63). All the cell lines used in this study, derived from different types of human cancer, were obtained from the American Type Culture Collection (ATCC).
(§5) Cells were maintained in Dulbecco's Modified Eagle Medium (DMEM) supplemented with 10% Fetal Bovine Serum (FBS), 2 mM L-glutamine, 100 U/mL penicillin and 100 U/mL streptomycin at 37° C., 5% CO2 and 98% humidity. For the experiments, cells were harvested from subconfluent cultures using trypsinization and resuspended in fresh medium before counting and plating.
(§6) Cells were seeded in 96 well microtiter plates at 5×10^3 cells per well in aliquots of 150 μL, and allowed to attach to the plate surface for 18 hours in drug free medium. One control (untreated) plate of each cell line was fixed (as described below) and used for time zero reference value. Afterwards, test samples were added to the cultures in ten serial dilutions, in aliquots of 50 μL, ranging from 10 to 0.00262 μg/mL. After 48 hours exposure, the antitumor effect was estimated by the SRB method: Briefly, cells were washed twice with PBS, fixed for 15 min in 1% glutaraldehyde solution, rinsed twice in PBS, and stained in 0.4% SRB solution for 30 min at room temperature. Cells were then rinsed several times with 1% acetic acid solution and air-dried. SRB was then extracted in 10 mM trizma base solution and the absorbance measured in an automated spectrophotometric plate reader at 490 nm. Cell survival was expressed as percentage of control cell growth. The final effect of the sample being tested was estimated by applying the NCI algorithm (Boyd M R and Paull K D. Drug Dev. Res. 1995, 34, 91-104).
(§7) Using the mean±SD of triplicate cultures, a dose-response curve was automatically generated using nonlinear regression analysis. Three reference parameters were calculated (NCI algorithm) by automatic interpolation: GI50=concentration that produces 50% growth inhibition; TGI=total growth inhibition (cytostatic effect) and LC50=concentration that produces 50% net cell killing (cytotoxic effect).

HT29 = assay: cells; type: cell-based; conditions: Homo sapiens; for IC (TGI): read-out: TGI
Excerpt: as §1, §2, §3, §4, §5, §6, §7

MDA-MB-231 = assay: cells; type: cell-based; conditions: Homo sapiens; for IC (TGI): read-out: TGI
Excerpt: as §1, §2, §3, §4, §5, §6, §7

HeLa cells = assay: Anti-mitotic assay (anti-MPM2 immunoassay); type: cell-based; conditions: Homo sapiens, 18 hours incubation, read-out: IC50 (50% mitotic arrest)
Experimental: Anti-Mitotic Assay Protocol
The mitotic ratio of the cell cultures (percentage of cells arrested in mitosis) was estimated using a specific 96-well microplate immunoassay that quantitatively detects a specific mitotic marker. HeLa cells (h-cervix carcinoma, ATCC# CCL-2) were incubated for 18 hours in the presence or absence of the samples being tested. Afterwards, cells were washed with PBS and lysed on ice in 75 μL of freshly prepared lysis buffer (1 mM EGTA (pH 7.5), 0.5 mM PMSF and 1 mM NaVO3) for 30 min. An aliquot of the cell extract (60 μL) was transferred to a high-binding surface ELISA plate and dried in a speed-vac for 2 h at room temperature. Plates were then blocked in 100 μL. PBS-1% BSA for 30 min at 30° C. and sequentially incubated with anti-MPM2 primary mouse monoclonal antibody (Upstate Biotechnology, cat #05-368) for 18 h at 4° C. and appropriate peroxidase-conjugated secondary antibody for 1 h at 30° C. After intensive washing in 0.02% Tween-20, peroxidase reaction were performed using 30 μL of TMB (3,3′,5,5′-tetramethyl-benzidine) for 30 min at 30° C. Reaction was stopped by adding 30 μL of a 4% H2SO4 solution. Assay was quantified by measuring the O.D. at 450 nm in a microplate spectrophotometer. Results were expressed as IC50, sample concentration that produces 50% mitotic arrest in treated cell cultures, as compared to control, untreated cultures.

Saccharomyces cerevisiae = conditions: fungus Saccharomyces cerevisiae; cited from earlier work
[1] = tested on: L929 mouse fibroblast cell culture; conditions: cited from earlier work
[2] = MDA-MB-231, 48 h, read-out: LC50
[3] = A549, 48 hours exposure, SRB, 50% net cell killing (cytotoxic effect), read-out: LC50 (the source's name)
[4] = A549, 48 hours exposure, SRB, concentration that produces 50% growth inhibition, read-out: GI50
[5] = A549, 48 hours exposure, SRB, total growth inhibition (cytostatic effect)
[6] = HT-29, HT29, 48 hours exposure, SRB, 50% net cell killing (cytotoxic effect), read-out: LC50 (the source's name)
[7] = HT-29, HT29, 48 hours exposure, SRB, concentration that produces 50% growth inhibition, read-out: GI50
[8] = HT-29, HT29, 48 hours exposure, SRB, total growth inhibition (cytostatic effect)
[9] = MDA-MB-231, 48 hours exposure, SRB, 50% net cell killing (cytotoxic effect), read-out: LC50 (the source's name)
[10] = MDA-MB-231, 48 hours exposure, SRB, concentration that produces 50% growth inhibition, read-out: GI50
[11] = MDA-MB-231, 48 hours exposure, SRB, total growth inhibition (cytostatic effect)

Compound	CC50 (A549; [3])	GI50 (A549; [4])	IC (TGI) (A549; [5])	CC50 (HT29; [6])	GI50 (HT29; [7])	IC (TGI) (HT29; [8])	CC50 (MDA-MB-231; [9])	GI50 (MDA-MB-231; [10])	IC (TGI) (MDA-MB-231; [11])	further results
C=C/C=C\[C@H](C)[C@H](OC(N)=O)[C@@H](C)[C@H](O)[C@@H](C)C/C(C)=C\[C@H](C)[C@@H](O)[C@@H](C)/C=C\[C@@H](O)CC1OC(=O)[C@H](C)[C@@H](O)[C@H]1C (single isomer, unassigned; (+)) [(+)-discodermolide]	–	–	–	–	–	–	–	–	–	IC50 (breast cancer carcinoma): 2.4 nM
COC1=CC[C@@H]([C@@H](C)/C=C(C)/C=C\C=C/C(=O)N[C@H](C(=O)N/C=C\C[C@H](C/C=C(\C)Cl)OC(N)=O)C(C)(C)C)OC1=O [Compound 1]	–	–	–	–	–	–	–	–	–	GI50 (A549; A549, 48 h): 0.379 nM; CC50 (A549; A549, 48 h, read-out: LC50): > 165 nM; IC (TGI) (A549; A549, 48 h): 1.09 nM; GI50 (HT29; HT-29, 48 h): 0.462 nM; CC50 (HT29; HT-29, 48 h, read-out: LC50): 0.99 nM; IC (TGI) (HT29; HT-29, 48 h): 0.61 nM; GI50 (MDA-MB-231; MDA-MB-231, 48 h): 0.445 nM; CC50 (MDA-MB-231; [2]): 2.8 nM; IC (TGI) (MDA-MB-231; MDA-MB-231, 48 h): 0.99 nM; IC50 (HeLa cells): 26.4 nM
COC1=CCC(C(C)/C=C(C)/C=C/C=C\C(=O)NC(C(=O)N/C=C\CC(C/C=C(\C)Cl)OC(N)=O)C(C)(C)C)OC1=O (stereo not drawn) [Compound 2]	–	–	–	–	–	–	–	–	–	GI50 (A549; A549, 48 h): 8.63 nM; CC50 (A549; A549, 48 h, read-out: LC50): ≥ 16500 nM; IC (TGI) (A549; A549, 48 h): 23.7 nM; GI50 (HT29; HT-29, 48 h): 8.31 nM; CC50 (HT29; HT-29, 48 h, read-out: LC50): 17.2 nM; IC (TGI) (HT29; HT-29, 48 h): 10.9 nM; GI50 (MDA-MB-231; MDA-MB-231, 48 h): 9.85 nM; CC50 (MDA-MB-231; [2]): 72 nM; IC (TGI) (MDA-MB-231; MDA-MB-231, 48 h): 21.5 nM; IC50 (HeLa cells): 26.4 nM
COC1=CC[C@@H]([C@@H](C)/C=C(C)/C=C\C=C/C(=O)N[C@H](C(=O)N/C=C\C[C@@H](O)C/C=C(\C)Cl)C(C)C)OC1=O [Compound 30c]	> 182 nM	0.71 nM	3.1 nM	> 182 nM	0.474 nM	0.838 nM	52.8 nM	0.983 nM	5.83 nM	–
COC1=CC[C@@H]([C@@H](C)/C=C(C)/C=C\C=C/C(=O)N[C@@H](Cc2ccccc2)C(=O)N/C=C\C[C@@H](O)C/C=C(\C)Cl)OC1=O [Compound 30d]	> 16.7 nM	0.318 nM	1.06 nM	> 16.7 nM	0.132 nM	0.251 nM	> 16.7 nM	0.31 nM	0.703 nM	–
COC1=CC[C@@H]([C@@H](C)/C=C(C)/C=C\C=C\C(=O)N[C@H](C(=O)N/C=C\C[C@@H](O)C/C=C(\C)Cl)C(C)(C)C)OC1=O [Compound 30e]	3550 nM	35.5 nM	302 nM	44.4 nM	13.5 nM	21.3 nM	266 nM	23.1 nM	65.7 nM	–
C/C(Cl)=C\C[C@H](O)C/C=C\NC(=O)[C@@H](NC(=O)\C=C/C=C\C(C)=C\[C@H](C)[C@@H]1CC=CC(=O)O1)C(C)(C)C [Compound 30f]	919 nM	488 nM	657 nM	1050 nM	488 nM	713 nM	1610 nM	694 nM	1070 nM	–
COC1=CC[C@@H]([C@@H](C)/C=C(C)/C=C\C=C/C(=O)N[C@@H](Cc2ccccc2)C(=O)N/C=C\C[C@H](C/C=C(\C)Cl)OC(N)=O)OC1=O [Compound 31]	> 15.6 nM	0.0922 nM	0.219 nM	> 15.6 nM	0.0406 nM	0.102 nM	0.359 nM	0.075 nM	0.15 nM	–
COC1=CC[C@@H]([C@@H](C)/C=C(C)/C=C/C=C/C(=O)N[C@H](C(=O)N/C=C\C[C@H](C/C=C(\C)Cl)O[Si](C)(C)C(C)(C)C)C(C)(C)C)OC1=O [Compound 37]	13900 nM	3540 nM	6640 nM	10000 nM	1920 nM	2950 nM	> 14800 nM	3100 nM	5610 nM	–
COC1=CC[C@@H]([C@@H](C)/C=C(C)/C=C/C=C/C(=O)N[C@H](C(=O)N/C=C\C[C@@H](O)C/C=C(\C)Cl)C(C)(C)C)OC1=O [Compound 38]	> 178 nM	46.2 nM	67.5 nM	> 178 nM	39.1 nM	63.9 nM	> 178 nM	60.4 nM	> 178 nM	–
COC1=CC[C@@H]([C@@H](C)/C=C(C)/C=C\C=C/C(=O)N[C@H](C(=O)N/C=C\C[C@@H](C/C=C(\C)Cl)OC(N)=O)C(C)(C)C)OC1=O [Compound (21S)-1]	–	–	–	–	–	–	–	–	–	GI50 (A549; A549, 48 h): 2.14 nM; CC50 (A549; A549, 48 h, read-out: LC50): > 1650 nM; IC (TGI) (A549; A549, 48 h): 42.9 nM; GI50 (HT29; HT-29, 48 h): 0.891 nM; CC50 (HT29; HT-29, 48 h, read-out: LC50): 23.1 nM; IC (TGI) (HT29; HT-29, 48 h): 1.63 nM; GI50 (MDA-MB-231; MDA-MB-231, 48 h): 1.65 nM; CC50 (MDA-MB-231; [2]): 34.6 nM; IC (TGI) (MDA-MB-231; MDA-MB-231, 48 h): 5.77 nM
COC(=O)CNC(=O)CCC/C=C\NC(=O)/C=C(C)/C=C/[C@H](C)[C@H](OC)[C@H](C)[C@H](/C=C/c1ccccc1)OC [crocacin D]	–	–	–	–	–	–	–	–	–	MIC (Saccharomyces cerevisiae): 0.0014 µg/mL (≈ 0.00259 µM); IC50 (toxicity) [1]: 0.06 µg/mL (≈ 0.111 µM)
CC(=O)O[C@H]1C(=O)[C@@]2(C)[C@H]([C@H](OC(=O)c3ccccc3)[C@]3(O)C[C@H](OC(=O)[C@H](O)[C@@H](NC(=O)c4ccccc4)c4ccccc4)C(C)=C1C3(C)C)[C@]1(OC(C)=O)CO[C@@H]1C[C@@H]2O [paclitaxel]	–	–	–	–	–	–	–	–	–	IC50 (breast cancer carcinoma): 2.1 nM
